Where a name gives a salt, the structure may show the parent alone. A value given as a limit tells only on which side of the number the result lay.

The target in this test is human GlyT1c (Homo sapiens (Human), UniProt P48067). Description: [3H]-Glycine uptake into recombinant CHO cells expressing human GlyT1. To be noted: hGlyT1c_5_CHO cells, 200 nM [3H]-glycine. The format is cell-based. The method, then: [^3H]-Glycine uptake into recombinant CHO cells expressing human GlyT1: Human GlyT1c expressing recombinant hGlyT1c—5_CHO cells were plated at 20,000 cells per well in 96 well Cytostar-T scintillation microplates (Amersham Biosciences) and cultured to sub-confluency for 24 h. […] The plates were placed in a Wallac Microbeta (PerkinElmer) and continuously counted by solid phase scintillation spectrometry during up to 3 hours. […] IC50 calculations were made by four-parametric logistic nonlinear regression analysis (GraphPad Prism) using determinations within the range of linear increase of [^3H]-glycine incorporation between 60 and 120 min.
Chain of human GlyT1c (P48067 whole entry): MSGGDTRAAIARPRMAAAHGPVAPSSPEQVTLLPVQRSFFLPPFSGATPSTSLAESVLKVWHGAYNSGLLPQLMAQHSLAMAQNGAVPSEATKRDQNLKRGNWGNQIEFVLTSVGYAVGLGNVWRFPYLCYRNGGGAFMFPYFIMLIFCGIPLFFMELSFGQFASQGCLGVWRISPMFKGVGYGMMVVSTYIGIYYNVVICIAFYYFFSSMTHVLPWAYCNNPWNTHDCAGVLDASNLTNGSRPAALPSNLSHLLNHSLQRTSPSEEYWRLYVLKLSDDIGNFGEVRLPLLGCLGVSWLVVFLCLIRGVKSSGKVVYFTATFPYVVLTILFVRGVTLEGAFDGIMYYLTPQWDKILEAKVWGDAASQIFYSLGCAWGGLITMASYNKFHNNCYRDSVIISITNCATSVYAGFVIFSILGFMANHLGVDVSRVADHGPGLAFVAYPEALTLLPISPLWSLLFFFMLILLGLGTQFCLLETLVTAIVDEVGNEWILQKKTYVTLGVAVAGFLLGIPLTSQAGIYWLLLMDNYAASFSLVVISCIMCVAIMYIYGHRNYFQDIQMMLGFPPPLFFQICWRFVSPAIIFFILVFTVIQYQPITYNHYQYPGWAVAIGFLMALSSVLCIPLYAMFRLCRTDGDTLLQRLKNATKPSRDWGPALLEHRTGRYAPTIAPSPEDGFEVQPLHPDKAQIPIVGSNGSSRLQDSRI
Usually IC50 stands for the midpoint of a concentration-inhibition curve. For the compound `CC(C)NC(=O)NCCOc1ccc2c(c1)C(C1(c3ccc(Cl)cc3)CCC1)NCC2` (centres unmarked) [Example 36, 1-(2-{1-[1-(4-Chloro-phenyl)-cyclobutyl]-1,2,3,4-tetrahydro-isoquinolin-7-yloxy}-ethyl)-3-isopropyl-urea hydrochloride], the IC50 was not above 100 µM.
The result for `Cn1cc(S(=O)(=O)NCCOc2ccc3c(c2)C(C2(c4ccc(Cl)cc4)CCC2)NCC3)cn1` (centres unmarked) [Example 37, 1-Methyl-1H-pyrazole-4-sulfonic acid (2-{1-[1-(4-chloro-phenyl)-cyclobutyl]-1,2,3,4-tetrahydro-isoquinolin-7-yloxy}-ethyl)-amide hydrochloride] reads not above 0.1 µM.
The result for `CC(C)S(=O)(=O)NCCOc1ccc2c(c1)C(C1(c3ccc(Cl)cc3)CCC1)NCC2` (centres unmarked) [Example 38, Propane-2-sulfonic acid (2-{1-[1-(4-chloro-phenyl)-cyclobutyl]-1,2,3,4-tetrahydro-isoquinolin-7-yloxy}-ethyl)-amide hydrochloride] reads not above 0.1 µM.
The value for `CCCCS(=O)(=O)NCCOc1ccc2c(c1)C(C1(c3ccc(Cl)cc3)CCC1)N(C(=O)NCC)CC2` (centres unmarked) [Example 39, 7-[2-(Butane-1-sulfonylamino)-ethoxy]-1-[1-(4-chloro-phenyl)-cyclobutyl]-3,4-dihydro-1H-isoquinoline-2-carboxylic acid ethylamide hydrochloride] was not above 100 µM; that for `CCCCS(=O)(=O)NCCOc1ccc2c(c1)C(C1(c3ccc(Cl)cc3)CCC1)N(C)CC2` (centres unmarked) [Example 40, Butane-1-sulfonic acid (2-{1-[1-(4-chloro-phenyl)-cyclobutyl]-2-methyl-1,2,3,4-tetrahydro-isoquinolin-7-yloxy}-ethyl)-amide] was not above 1 µM; that for `CCS(=O)(=O)N1CCN(c2ccc3c(c2)C(C2(c4ccc(Cl)cc4)CCC2)NCC3)CC1` (centres unmarked) [Example 41, 1-[1-(4-Chloro-phenyl)-cyclobutyl]-7-(4-ethanesulfonyl-piperazin-1-yl)-1,2,3,4-tetrahydro-isoquinoline] was not above 100 µM.
Turning to `O=C(NCCOc1ccc2c(c1)C(C1(c3ccc(Cl)cc3)CCC1)NCC2)Nc1cccnc1` (centres unmarked) [Example 42, 1-(2-{1-[1-(4-Chloro-phenyl)-cyclobutyl]-1,2,3,4-tetrahydro-isoquinolin-7-yloxy}-ethyl)-3-pyridin-3-yl-urea hydrochloride], the half-maximal inhibitory concentration (IC50) was not above 100 µM.
The result for `Cn1cc(S(=O)(=O)NCCOc2ccc3c(c2)C(C2(c4ccc(Cl)cc4)CC(F)(F)C2)NCC3)cn1` (centres unmarked) [Example 43, 1-Methyl-1H-pyrazole-4-sulfonic acid (2-{1-[1-(4-chloro-phenyl)-3,3-difluoro-cyclobutyl]-1,2,3,4-tetrahydro-isoquinolin-7-yloxy}-ethyl)-amidehydrochloride] reads not above 0.1 µM; that for `CCCS(=O)(=O)NCCOc1ccc2c(c1)C(C1(c3ccc(Cl)cc3)CC(F)(F)C1)NCC2` (centres unmarked) [Example 44, Propane-1-sulfonic acid (2-{1-[1-(4-chloro-phenyl)-3,3-difluoro-cyclobutyl]-1,2,3,4-tetrahydro-isoquinolin-7-yloxy}-ethyl)-amide hydrochloride], not above 0.1 µM.
The result for `CCCS(=O)(=O)NCCN(CCOc1ccc2c(c1)C(C1(c3ccc(Cl)cc3)CCC1)NCC2)S(=O)(=O)CCC` (centres unmarked) [Example 45, Propane-1-sulfonic acid (2-{1-[1-(4-chloro-phenyl)-cyclobutyl]-1,2,3,4-tetrahydro-isoquinolin-7-yloxy}-ethyl)-[2-(propane-1-sulfonylamino)-ethyl]amide] reads not above 1 µM; that for `CCCS(=O)(=O)NCCOc1ccc2c(c1)C(C1(c3ccc(Cl)cc3)CCC1)N(C(=N)NC#N)CC2` (centres unmarked) [Example 46, 1-(1-(4-Chlorophenyl)cyclobutyl)-N-cyano-7-(2-(propylsulfonamido)ethoxy)-3,4-dihydroisoquinoline-2(1H)-carboximidamide], not above 1 µM; that for `CCCS(=O)(=O)NCCOc1ccc2c(c1)C(C1(c3ccc(Cl)cc3)CCC1)N(C(=N)N)CC2` (centres unmarked) [Example 47, 1-[1-(4-Chloro-phenyl)-cyclobutyl]-7-[2-(propane-1-sulfonylamino)-ethoxy]-3,4-dihydro-1H-isoquinoline-2-carboxamidine], not above 10 µM.
Regarding `O=C(COc1ccc2c(c1)C(C1(c3ccc(Cl)cc3)CCC1)NCC2)N1CCNCC1` (centres unmarked) [Example 48, 2-{1-[1-(4-Chloro-phenyl)-cyclobutyl]-1,2,3,4-tetrahydro-isoquinolin-7-yloxy}-1-piperazin-1-yl-ethanone], the concentration for half-maximal inhibition (IC50) is not above 10 µM.
The result for `CCCS(=O)(=O)NCCOc1ccc2c(c1)C(C1(c3cccc(Cl)c3)CCC1)NCC2` (centres unmarked) [Example 49, Propane-1-sulfonic acid (2-{1-[1-(3-chloro-phenyl)-cyclobutyl]-1,2,3,4-tetrahydroisoquinolin-7-yloxy}-ethyl)-amide] reads not above 0.1 µM; that for `CCCS(=O)(=O)NCCOc1ccc2c(c1)C(C1(c3ccccc3)CCC1)NCC2` (centres unmarked) [Example 50, 1-(1-Phenylcyclobutyl)-7-(2-(propylsulfonamido)ethoxy)-1,2,3,4-tetrahydroisoquinolinium chloride], not above 0.1 µM.
The value for `Cn1cnc(S(=O)(=O)NCCOc2ccc3c(c2)C(C2(c4ccc(Cl)cc4)CCC2)NCC3)c1` (centres unmarked) [Example 51, 1-(1-(4-Chlorophenyl)cyclobutyl)-7-(2-(1-methyl-1H-imidazole-4-sulfonamido)ethoxy)-1,2,3,4-tetrahydroisoquinolinium chloride] was not above 0.1 µM; that for `Cc1nc(S(=O)(=O)NCCOc2ccc3c(c2)C(C2(c4ccc(Cl)cc4)CCC2)NCC3)cn1C` (centres unmarked) [Example 52, 1-(1-(4-Chlorophenyl)cyclobutyl)-7-(2-(1,2-dimethyl-1H-imidazole-4-sulfonamido)ethoxy)-1,2,3,4-tetrahydroisoquinolinium chloride] was not above 10 µM.
In the case of `CCOC(=O)N1CCN(S(=O)(=O)NCCOc2ccc3c(c2)C(C2(c4ccc(Cl)cc4)CCC2)NCC3)CC1` (centres unmarked) [Example 54, Ethyl 4-(N-(2-(1-(1-(4-chlorophenyl)cyclobutyl)-1,2,3,4-tetrahydroisoquinolin-7-yloxy)ethyl)sulfamoyl)piperazine-1-carboxylate hydrochloride], the IC50 was not above 10 µM.
The result for `O=S(=O)(NCCOc1ccc2c(c1)C(C1(c3ccc(Cl)cc3)CCC1)NCC2)N1CCNCC1` (centres unmarked) [Example 55, N-(2-(1-(1-(4-Chlorophenyl)cyclobutyl)-1,2,3,4-tetrahydroisoquinolin-7-yloxy)ethyl)piperazine-1-sulfonamide dihydrochloride] reads not above 10 µM; that for `CCCS(=O)(=O)N1CCN(S(=O)(=O)NCCOc2ccc3c(c2)C(C2(c4ccc(Cl)cc4)CCC2)NCC3)CC1` (centres unmarked) [Example 56, N-(2-(1-(1-(4-Chlorophenyl)cyclobutyl)-1,2,3,4-tetrahydroisoquinolin-7-yloxy)ethyl)-4-(propylsulfonyl)piperazine-1-sulfonamide hydrochloride], not above 10 µM; that for `O=S(=O)(NCCOc1ccc2c(c1)C(C1(c3ccc(Cl)cc3)CCC1)NCC2)c1c[nH]cn1` (centres unmarked) [Example 57, N-(2-(1-(1-(4-Chlorophenyl)cyclobutyl)-1,2,3,4-tetrahydroisoquinolin-7-yloxy)ethyl)-1H-imidazole-4-sulfonamide hydrochloride], not above 0.1 µM.
The value for `O=S(=O)(NCCOc1ccc2c(c1)C(C1(c3ccc(Cl)cc3)CCC1)NCC2)c1ccc(NCc2ccccc2)nc1` (centres unmarked) [Example 58, 6-(Benzylamino)-N-(2-(1-(1-(4-chlorophenyl)cyclobutyl)-1,2,3,4-tetrahydroisoquinolin-7-yloxy)ethyl)pyridine-3-sulfonamide hydrochloride] was not above 1 µM.
The value for `CCCNc1ccc(S(=O)(=O)NCCOc2ccc3c(c2)C(C2(c4ccc(Cl)cc4)CCC2)NCC3)cn1` (centres unmarked) [Example 59, N-(2-(1-(1-(4-Chlorophenyl)cyclobutyl)-1,2,3,4-tetrahydroisoquinolin-7-yloxy)ethyl)-6-(propylamino)pyridine-3-sulfonamide hydrochloride] was not above 10 µM; that for `CCCS(=O)(=O)NCCOc1ccc2c(c1)C(C(c1ccc(Cl)cc1)C(C)C)NCC2` (centres unmarked) [Example 60, dihydrochloride] was not above 10 µM; that for `O=S(=O)(NCCOc1ccc2c(c1)C(C1(c3ccc(Cl)cc3)CCC1)NCC2)C1CCCNC1` (centres unmarked) [Example 61, N-(2-(1-(1-(4-Chlorophenyl)cyclobutyl)-1,2,3,4-tetrahydroisoquinolin-7-yloxy)ethyl)piperidine-3-sulfonamide dihydrochloride] was not above 0.1 µM.
Consider `O=S(=O)(NCCOc1ccc2c(c1)C(C1(c3ccc(F)cc3)CCC1)NCC2)c1cccnc1` (centres unmarked) [Example 66, N-[2-({1-[1-(4-Fluorophenyl)cyclobutyl]-1,2,3,4-tetrahydroisoquinolin-7-yl}oxy)ethyl]pyridine-3-sulfonamide hydrochloride], for which the IC50 is not above 0.1 µM.
The value for `CCCS(=O)(=O)NCCOc1ccc2c(c1)C(C1(c3ccc(Cl)cc3)CCC1)NCC2(C)C` (centres unmarked) [Example 67, N-[2-({1-[1-(4-Chlorophenyl)cyclobutyl]-4,4-dimethyl-1,2,3,4-tetrahydroisoquinolin-7-yl}oxy)ethyl]propane-1-sulfonamide hydrochloride] was not above 0.1 µM; that for `CCCS(=O)(=O)NCCOc1ccc2c(c1)CCNC2C1(c2ccc(Cl)cc2)CCC1` (centres unmarked) [Example 68, N-[2-({1-[1-(4-Chlorophenyl)cyclobutyl]-1,2,3,4-tetrahydroisoquinolin-6-yl}oxy)ethyl]propane-1-sulfonamide hydrochloride] was not above 10 µM.
The result for `CCN(CC)S(=O)(=O)NCCOc1ccc2c(c1)C(C1(c3ccc(Cl)cc3)CCC1)NCC2(C)C` (centres unmarked) [Example 69, N′-[2-({1-[1-(4-Chlorophenyl)cyclobutyl]-4,4-dimethyl-1,2,3,4-tetrahydroisoquinolin-7-yl}oxy)ethyl]-N,N-diethylsulfuric diamide hydrochloride] reads not above 1 µM.

For the origin of these results see patent US8653100B2 (AbbVie Inc., priority 2008, dated 2014).
